Experimental data reported in patent US8049014B2, “Aminoquinoline derivatives, preparation method thereof and pharmaceutical composition comprising the same” (Korea Institute of Science and Technology, priority 2009, dated 2011).

Columns and labels:
HS27 fibroblasts = assay: Inhibition of proliferation of HS27 fibroblasts (selectivity, MTT reduction assay); format: cell-based; conditions: Homo sapiens
Description: (§1) 10% of fetal bovine serum (FBS) and 1% of penicillin/streptomycin were put into a Dulbecco's Modified Eagle (DMEM) medium, and A375P tumor cells obtained from ATCC was incubated in the above medium under a 5% CO2 atmosphere at 37° C. A375P cells were taken into 0.05% trypsin-0.02% ethylene-diamine tetraacetic acid (EDTA) and seeded it into wells of 96 well plate with 5×10^3 cells/well, and the viability of the cells was determined with a conventional [3-(4,5-dimethylthiazol-2-yl)-2,5-diphenyltetrazolium bromide, MTT] reduction assay. In the MTT efficacy experimentation, 15 μL of dye per well was put into the wells in accordance with the protocol of CellTiter 96® Assay (Promega), and then incubated for two hours, into which 100 μL of stop solution was added. The resultant was read after 24 hours. After one day of the plating, the obtained material was treated with a compound of the present invention. When it was treated with the compound, 10 mM of stock solution was prepared, and gradually diluted to one-third in dimethyl sulfoxide (DMSO). A test compound plate was prepared with 12 points, into which 0.5 μL was put (final concentration was DMSO 0.5%). Absorbance was read at a wavelength of 590 nm using EnVision 2103 (Perkin Elmer Boston, Mass., US), and GI50 values were calculated using GraphPad Prism 4.0 software.
(§2) GI50 values indicating inhibition of the compounds according to the examples of the present invention and control substances, on the proliferation of A375 melanoma tumor cells and HS27 fibroblasts. Sorafenib (BAY43-9006, Nexavar) which has been known as a substance having a good anti-proliferative effect on the melanoma tumor cells was used as a control substance.

[1] = system: A375 melanoma tumor cells; assay: Anti-proliferative effect on melanoma tumor cells (MTT reduction assay); format: cell-based
Description: as §1, §2

[2] = Homo sapiens, A-375, A375 melanoma tumor cells

Row | Structure (SMILES) | GI50 (HS27 fibroblasts) [µM] | GI50 [1, 2] [µM] | GI50 ([1]; A375 melanoma tumor cells) [µM]
1 | Nc1cccc2c(Oc3ccc(NC(=O)Nc4ccc(Cl)c(C(F)(F)F)c4)cc3)ccnc12 [Compound 1a, 1-[4-(8-aminoquinolin-4-yloxy)phenyl]-3-(4-chloro-3-trifluoromethylphenyl)urea] | 6.71 | 3.74 | 
2 | Nc1cccc2c(Oc3ccc(NC(=O)c4ccc(Cl)c(C(F)(F)F)c4)cc3)ccnc12 [Compound 1b, N-[4-(8-aminoquinolin-4-yloxy)phenyl]-4-chloro-3-trifluoromethylbenzamide] | 7.63 | 5.69 | 
3 | CC(=O)Nc1cccc2c(Oc3ccc(NC(=O)Nc4ccc(Cl)c(C(F)(F)F)c4)cc3)ccnc12 [Compound 1c, 1-[4-(8-acetylaminoquinolin-4-yloxy)phenyl]-3-(4-chloro-3-trifluoro-methylphenyl)urea] | 6.02 | 4.19 | 
4 | CC(=O)Nc1cccc2c(Oc3ccc(NC(=O)c4ccc(Cl)c(C(F)(F)F)c4)cc3)ccnc12 [Compound 1d, N-[4-(8-acetylaminoquinolin-4-yloxy)phenyl]-4-chloro-3-trifluoromethylbenzamide] | 5.47 | 3.14 | 
5 | O=C(Nc1ccc(Oc2ccnc3c(NC(=O)c4ccccc4)cccc23)cc1)c1ccc(Cl)c(C(F)(F)F)c1 [Compound 1e, N-[4-(8-benzoylaminoquinolin-4-yloxy)phenyl]-4-chloro-3-trifluoromethylbenzamide] | > 20 | 0.77 to 0.8 | 0.8
6 | Nc1cccc2c(Oc3cccc(NC(=O)Nc4ccc(Cl)c(C(F)(F)F)c4)c3)ccnc12 [Compound 1f, 1-[3-(8-aminoquinolin-4-yloxy)phenyl]-3-(4-chloro-3-trifluoromethylphenyl)urea] | 10.4 | 2.56 | 
7 | Nc1cccc2c(Oc3cccc(NC(=O)c4ccc(Cl)c(C(F)(F)F)c4)c3)ccnc12 [Compound 1g, N-[3-(8-aminoquinolin-4-yloxy)phenyl]-4-chloro-3-trifluoromethylbenzamide] | > 20 | 6.73 | 
8 | CC(=O)Nc1cccc2c(Oc3cccc(NC(=O)Nc4ccc(Cl)c(C(F)(F)F)c4)c3)ccnc12 [Compound 1h, 1-[3-(8-acetylaminoquinolin-4-yloxy)phenyl]-3-(4-chloro-3-trifluoromethylphenyl)urea] | 5.68 | 2.32 | 
9 | CC(=O)Nc1cccc2c(Oc3cccc(NC(=O)c4ccc(Cl)c(C(F)(F)F)c4)c3)ccnc12 [Compound 1i, N-[3-(8-acetylaminoquinolin-4-yloxy)phenyl]-4-chloro-3-trifluoromethylbenzamide] | > 20 | 3.49 | 
10 | O=C(Nc1cccc(Oc2ccnc3c(NC(=O)c4ccccc4)cccc23)c1)c1ccc(Cl)c(C(F)(F)F)c1 [Compound 1j, N-[3-(8-benzoylaminoquinolin-4-yloxy)phenyl]-4-chloro-3-trifluoromethylbenzamide] | > 20 | 0.77 to 0.8 | 0.78
11 | CC(=O)Nc1cccc2c(Oc3cc(NC(=O)c4ccc(Cl)c(C(F)(F)F)c4)ccc3C)ccnc12 [Compound 1k, N-[3-(8-acetylaminoquinolin-4-yloxy)-4-methylphenyl]-4-chloro-3-trifluoromethylbenzamide] | > 20 | 1.3 | 
12 | CC(=O)Nc1cccc2c(Oc3cc(NC(=O)c4cccc(C(F)(F)F)c4)ccc3C)ccnc12 [Compound 1l, N-[3-(8-acetylaminoquinolin-4-yloxy)-4-methylphenyl]-3-trifluoromethylbenzamide] | > 20 | 1.28 | 
13 | CC(=O)Nc1cccc2c(Oc3cc(NC(=O)c4cc(C(F)(F)F)cc(C(F)(F)F)c4)ccc3C)ccnc12 [Compound 1m, N-[3-(8-acetylaminoquinolin-4-yloxy)-4-methylphenyl]-3,5-bistrifluoromethylbenzamide] | > 20 | 0.77 to 0.8 | 0.77
14 | CC(=O)Nc1cccc2c(Oc3cc(NC(=O)c4ccc([N+](=O)[O-])c(C(F)(F)F)c4)ccc3C)ccnc12 [Compound 1n, N-[3-(8-acetylaminoquinolin-4-yloxy)-4-methylphenyl]-4-nitro-3-trifluoromethylbenzamide] | > 20 | 0.77 to 0.8 | 0.79
15 | CC(=O)Nc1cccc2c(Oc3cc(NC(=O)c4cc(N5CCC(O)CC5)cc(C(F)(F)F)c4)ccc3C)ccnc12 [Compound 1o, N-[3-(8-acetylaminoquinolin-4-yloxy)-4-methylphenyl]-3-(4-hydroxypiperidin-1-yl)-5-trifluoromethylbenzamide] | > 20 | > 20 | 
16 | CC(=O)Nc1cccc2c(Oc3cc(NC(=O)c4cc(-n5cnc(C)c5)cc(C(F)(F)F)c4)ccc3C)ccnc12 [Compound 1p, N-[3-(8-acetylaminoquinolin-4-yloxy)-4-methylphenyl]-3-(4-methylimidazol-1-yl)-5-trifluoromethylbenzamide] | > 20 | > 20 | 
17 | CC(=O)Nc1cccc2c(Oc3cc(NC(=O)c4ccccc4Cl)ccc3C)ccnc12 [Compound 1q, N-[3-(8-acetylaminoquinolin-4-yloxy)-4-methylphenyl]-2-chlorobenzamide] | > 20 | 2.12 | 
18 | CC(=O)Nc1cccc2c(Oc3cc(NC(=O)c4cc(C)on4)ccc3C)ccnc12 [Compound 1r, N-[3-(8-acetylaminoquinolin-4-yloxy)-4-methylphenyl]-5-methylisoxazole-3-carboxylic acid amide] | > 20 | > 20 | 
19 | Cc1ccc(NC(=O)c2ccc(Cl)c(C(F)(F)F)c2)cc1Oc1ccnc2c(NC(=O)c3ccccc3)cccc12 [Compound 1s, N-[3-(8-benzoylaminoquinolin-4-yloxy)-4-methylphenyl]-4-chloro-3-trifluoromethylbenzamide] | > 20 | 1.03 | 
20 | CNC(=O)c1cc(Oc2ccc(NC(=O)Nc3ccc(Cl)c(C(F)(F)F)c3)cc2)ccn1 [Sorafenib, reference compound] | 7.85 | 5.58 | 
